In PMC5881420, “Identification, Expression Patterns, and Functional Characterization of Chemosensory Proteins in Dendroctonus armandi (Coleoptera: Curculionidae: Scolytinae)” (Frontiers in Physiology, 2018):

What was measured:
[1] = target: DarmCSP2 (Dendroctonus armandi, UniProt A0A3S7PYZ0); assay: Fluorescence competitive binding assay (1-NPN displacement); details: for IC50: 2 μM DarmCSP2 and 2 μM 1-NPN titrated with ligand 2–16 μM, three independent measurements; for Ki: calculated from IC50: KD = [IC50]/(1+[1-NPN]/K1-NPN)
Sequence of DarmCSP2 (A0A3S7PYZ0 entry or part of it): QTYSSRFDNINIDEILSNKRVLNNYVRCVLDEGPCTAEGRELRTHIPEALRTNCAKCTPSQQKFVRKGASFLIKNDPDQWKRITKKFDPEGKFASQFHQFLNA
Procedure: A Hitachi F-4500 fluorescence spectrophotometer was used to measure emission fluorescence spectra, in a right-angle configuration with a 1 cm light-path quartz cuvette. The slit width was […] for both excitation and emission. DarmCSPs were dissolved to 2 μM in 50 mM Tris-HCl buffer (pH = 7.4), whereas fluorescent probe N-phenyl-1-naphthylamine (1-NPN) and all semiochemicals were dissolved in methanol with a 1 mM stock solution. […] Excitation of 1-NPN occurred at 337 nm, with the emission spectra recorded from 360 to 500 nm. Corresponding fluorescence intensity values were plotted against free 1-NPN concentration to determine DarmCSP binding constants. Bound 1-NPN concentrations were assessed based on fluorescence intensity, assuming DarmCSPs were 100% active and protein: ligand = 1:1 at saturation. The dissociation-constants curve was linearized with Scatchard plots in Prism 6.0 (GraphPad Software, CA, USA).
Ligand affinity was measured with competitive binding assays. Fourteen compounds were selected based on previous reports (Zhang et al., [2010]; Xie and Lv, [2012]; Chen et al., [2015]; Zhao et al., [2017a],[b]), including 10 host volatiles and four D. armandi pheromones (Table 2). A mixture of 2 μM DarmCSP and 2 μM 1-NPN was titrated with each ligand to final concentrations of 2–16 μM. Corresponding fluorescence intensities were recorded from three independent measurements. Dissociation constants of competitive ligands were calculated according to IC50 values, using the equation: KD = [IC50]/(1+[1-NPN]/K1−NPN), where IC50 is competitive-ligand concentration at half the initial fluorescence of 1-NPN, 1-NPN is the concentration of free 1-NPN, and K1−NPN is the dissociation constant of DarmCSP with 1-NPN.

[2] = system: D. armandi antennae; assay: Electroantennogram (EAG) of antennae after RNAi of DarmCSP2; design: species or system Dendroctonus armandi; details: 48 h post-injection; semiochemical 10 μg/μL in hexane; compared with non-injected and water-injected controls; P < 0.05
Procedure: Freshly and synchronously emerged adults were anesthetized on glass petri dishes placed for 30 min in an ice bath, before injection with 0.2 μL dsCSP2 into the hemocoel at the suture under the hindleg. Injections used Hamilton Microliter™ syringes (700 series, RN) with 32G sharp-point needles (Hamilton, Switzerland). Controls were either injected with 0.2 μL DEPC-treated water or not injected. Subjects were then transferred onto wet filter paper placed in clear glass petri dishes for continuous culture (at 20 ± 1°C, 50% humidity). Three males and three females were removed at different time intervals (12, 24, and 48 h) from each treatment group for storage at −80°C until qRT-PCR analysis. Three replicates were performed per treatment group (non-injected, water-injected, dsCSP2-injected). RNA isolation, cDNA synthesis, and qRT-PCR procedure followed methods described above (“RNA isolation and cDNA synthesis” and “Expression patterns of CSP genes across different life stages and tissues”).
Electroantennograms (EAG) were used to detect RNAi efficiency of dsCSP2 and determine DarmCSP2 function in binding semiochemicals. Methods were modified from a previous study (Zhang et al., [2010]). Subject beetles were chosen based on post-RNAi qRT-PCR and anesthetized in an ice bath. Antennae were carefully excised at their base with a scalpel and immediately connected between two electrode holders using Spectra 360 electrode gel.
Semiochemicals were selected based on the results of fluorescence binding assays and dissolved to 10 μg/μL in hexane. Hexane alone acted as a blank control and 1 μg/μL 1-hexanol was used as a standard to normalize all EAG recordings (Zhang et al., [2010]). Semiochemical solutions (20 μL) were loaded onto filter paper strips (5 × 30 mm) and then transferred into a Pasteur pipette. The pipette tip was then inserted into a small hole in the wall of a steel tube (15 mm diameter × 15 cm length). The tube was connected to an air stimulus controller (CS-05b Syntech, the Netherlands) for constant humidified airflow delivery at a rate of 40 mL/min. The open end of the tube was positioned 1 cm before an antenna affixed between two electrode holders.
To stimulate the antenna, semiochemical-containing air was introduced through the pipette into the main air flow at a rate of 20 mL/min for 0.2 s. Each stimulus was separated by at least a 1 min interval to ensure complete antenna recovery. Signals were recorded using an IDAC-2 unit plus amplifier and Syntech EAG 2000 (Syntech, Netherlands). The control and standard were tested before and after every semiochemical solution. Antennae from12 individuals (six males and six females) were tested, with three replicates per antenna. To calculate EAG values, mean responses of the solvent control before and after exposure were subtracted from mean sample responses, then converted to a percentage of the accompanying standard (Zhang et al., [2010]).

[3] = system: DarmCSP1; assay: Fluorescence binding assay of 1-NPN with DarmCSP1; design: species or system Dendroctonus armandi; details: DarmCSP1, 2 μM protein titrated with 1-NPN
Text: (§1) To better characterize DarmCSP function, three antennae-preferential genes (DarmCSP 1–3) were chosen for expression in bacteria. Signal peptides were removed to generate properly folded proteins. PCR products encoding mature proteins were amplified using gene-specific primers (Table S1), cloned into pGEM-T easy vectors (Promega, Madison, USA), then excised and cloned into the bacterial expression vector pET32a(+) (Novagen, Madison, WI), between BamHI and XhoI restriction sites. Successful cloning was verified through PCR and sequencing. Plasmids containing the correct insert were extracted and transformed into E. coli BL21 (DE3) competent cells. Positive clones were incubated at 37°C until absorbance = 0.6 at OD 600, and protein expression was induced with IPTG (isopropyl-β-D-1-thiogalactopyranoside) treatment (28°C for 6 h) to a final concentration of 0.5 mM. […]
(§2) Recombinant proteins were purified with N-termini His tagged from the supernatant using a Ni-NTA-Sefinose Column (Sangon, Shanghai, China), and placed in a buffer (25 mM Tris-HCl, 50 mM NaCl, and 2 mM CaCl2, pH 7.6) for dialysis. To avoid confounding effects in fluorescence binding assays, His-tags were excised using Recombinant Enterokinase with His-tag (rEK) (Sangong, Shanghai, China), and the resultant complex was cleared through a Ni-NTA-Sefinose Column. […]

[4] = system: DarmCSP3; assay: Fluorescence binding assay of 1-NPN with DarmCSP3; design: species or system Dendroctonus armandi; details: DarmCSP3, 2 μM protein titrated with 1-NPN
Text: as §1, §2

Compound | IC50 [1] | Ki [1] | Effect of dsCSP2 injection on antennae EAG activity in response to the semiochemical [2] | Affinity to 1-NPN [3] | Affinity to 1-NPN [4]
(+)-α-Pinene | 3.6 ± 0.03 µM | 2.33 ± 0.02 µM | significantly reduced |  | 
CC1=CCC2C(C1)C2(C)C (single isomer, unassigned; (+)) [(+)-3-Carene] | 3.05 ± 0.71 µM | 1.97 ± 0.46 µM | significantly reduced |  | 
CC1=CC[C@H](C(C)C)C=C1 [(R)-(-)-a-Phellandrene] | 8.77 ± 0.24 µM | 5.66 ± 0.16 µM |  |  | 
CC[C@@H]1O[C@]2(C)CCC[C@H]1O2 (racemic) [(±)-exo-Brevicomin] | 14.48 ± 0.11 µM | 9.34 ± 0.07 µM |  |  | 
(–)-β-Pinene | 5.93 ± 0.17 µM | 3.83 ± 0.11 µM | significantly reduced |  | 
C=CC(=C)CCC=C(C)C [Myrcene] |  |  | significantly reduced |  | 
C=C1[C@H]2CC[C@H](C2)C1(C)C [(+)-Camphene] |  |  | significantly reduced |  | 
(S)-(-)-Limonene | 5.51 ± 0.42 µM | 3.41 ± 0.04 µM |  |  | 
(+)-β-Pinene | 5.9 ± 1.31 µM | 3.8 ± 0.84 µM | significantly reduced |  | 
(±)-Frontalin | 26.2 ± 1.94 µM | 16.9 ± 1.26 µM |  |  | 
c1ccc(Nc2cccc3ccccc23)cc1 [1-NPN, N-phenyl-1-naphthylamine] |  |  |  | no obvious affinity | no obvious affinity
C=C(C)[C@H]1CC=C(C)CC1 [(R)-(+)-Limonene] | 6.36 ± 0.25 µM | 4.1 ± 0.16 µM |  |  | 
CC1=C[C@H](O)[C@@H]2C[C@H]1C2(C)C (relative stereo) [(-)-trans-Verbenol] | 4.33 ± 0.1 µM | 2.8 ± 0.07 µM |  |  | 
CC1=CCC2CC1C2(C)C (stereo not drawn) [(–)-α-Pinene] | 2.53 ± 0.11 µM | 1.64 ± 0.08 µM |  |  | 
